Source: patent publication US20100063162A1, “METHOD FOR PREDICTING EFFICACY OF RAR-ALPHA AGONIST” (TAIHO PHARMACEUTICAL CO., LTD., priority 2005, published 2010)

Experiments:
HCC-D = assay: Orthotopic hepatoma model, tumor weight in the liver, HCC-D; assay type: in vivo, nude mouse; details: oral everyday, 3 weeks, nude mice
Method: (§1) Accordingly, an experiment of therapeutic treatment was performed to examine susceptibility to RAR-α agonists. The cultured liver cancer cells were transplanted in an amount of 1×10^6 cells into the outer left lobes of the livers in nude mice (BALB/cA Jcl-nu, Clea Japan, Inc.), TAC-101 as an RAR-α agonist was orally administered everyday as a 0.5% hydroxypropylmethylcellulose suspension (Shin-Etsu Chemical Co., Ltd.), and then the weights of tumors formed in the livers were measured 3 weeks later to obtain mean inhibition rates. […] Further, it was also observed by two-sided Student's t test that these antitumor effects were statistically significant inhibitory action.

HCC-E = assay: Orthotopic hepatoma model, tumor weight in the liver, HCC-E; assay type: in vivo, nude mouse; details: oral everyday, 3 weeks, nude mice
Method: as §1

human liver cancer = details: phase II study; cited from earlier work
RAR-α = RAR-α transcription activity test (pRARE-SEAP reporter) in hepatocellular carcinoma cells; assay type: cell-based, human; details: for RAR response (T/C %): 24 hours, untreated cells = 100
Method: The test for confirming the RAR-α transcription activity was performed as follows.
Hepatocellular carcinoma cells of each type transfected with a reporter plasmid containing an RAR-α binding sequence with the SEAP gene in a downstream region (pRARE-SEAP-TA-vector, Clontech) were treated with an RAR-α agonist, and then the SEAP alkaline phosphatase activity in the culture supernatant was measured. The cultured hepatocellular carcinoma cells were transfected with the RARE reporter plasmid mixed in a transfection reagent prepared by using the culture broth and FuGENE6 solution at a ratio of 100:6 and cultured for 24 hours. The culture broth was replaced with the one containing TAC-101 as an RAR-α agonist, and the cells were cultured for further 24 hours. Then, the culture supernatant was collected, and transcription activity was confirmed by using an alkaline phosphatase activity measurement reagent (SEAP Detection Kit, Clontech).

HCC-C = assay: Orthotopic hepatoma model, tumor weight in the liver, HCC-C; assay type: in vivo, nude mouse; details: oral everyday, 3 weeks, nude mice
Method: as §1

liver cancer = details: animal model of liver cancer; cited from earlier work
[1] = tested on: colorectal cancer cell line CAC; assay: Survival after spleen inoculation (liver metastasis model), CAC; assay type: in vivo, nude mouse; details: oral every day for 4 weeks, nude mice
Description: (§2) Further, correlation between the cofactor balance and survival advantage was examined by using cancer cell lines for which survival were evaluatable. When cells of the colorectal cancer cell line CAC, having an AIB1/SP110b ratio of 0.08 so as to be dominant in SP110b, and the aforementioned HCC-E cells are inoculated in the nude mouse spleen, dissemination easily occurs in the liver, resulting in formation of a metastatic condition in the liver. After 1×10^6 of CAC or HCC-E cells were transplanted, and TAC-101 was orally administered every day for 4 weeks, the survival time of each model animal was observed. In the CAC model, in which SP110b was dominant, prolongation of the survival time was only 26%, whereas in the HCC-E model, in which the class of the p160 family molecule was dominant, nearly […] longer survival time prolongation of 81% was confirmed. Further, this effect in the HCC-E model was also statistically significant (P<0.001).

HCC-E cells = assay: Survival after spleen inoculation (liver metastasis model), HCC-E; assay type: in vivo, nude mouse; details: oral every day for 4 weeks, nude mice
Description: as §2

C[Si](C)(C)c1cc(C(=O)Nc2ccc(C(=O)O)cc2)cc([Si](C)(C)C)c1 [TAC-101, 4-[3,5-Bis(trimethylsilyl)benzamido]benzoic acid]
Inhibition (%) of tumor growth (tumor weight, mean inhibition rate) (HCC-D): −3%
therapeutic effect (in words) (HCC-D): no therapeutic effect was observed
Inhibition (%) of tumor growth (tumor weight, mean inhibition rate) (HCC-E): 67%
prevention of tumor progression (human liver cancer): 43%
RAR response (T/C %) (RAR-α; HCC-A cells, TAC-101 0.3 μM): 142%
RAR response (T/C %) (RAR-α; HCC-A cells, TAC-101 1 μM): 110%
RAR response (T/C %) (RAR-α; HCC-A cells, TAC-101 3 μM): 143%
RAR response (T/C %) (RAR-α; HCC-B cells, TAC-101 0.3 μM): 180%
RAR response (T/C %) (RAR-α; HCC-B cells, TAC-101 1 μM): 188%
RAR response (T/C %) (RAR-α; HCC-B cells, TAC-101 3 μM): 146%
RAR transcription activity induced by TAC-101 (in words) (RAR-α; HCC-C cells): high
RAR response (T/C %) (RAR-α; HCC-C cells, TAC-101 0.3 μM): 342%
RAR response (T/C %) (RAR-α; HCC-C cells, TAC-101 1 μM): 497%
RAR response (T/C %) (RAR-α; HCC-C cells, TAC-101 3 μM): 285%
RAR transcription activity induced by TAC-101 (in words) (RAR-α; HCC-D cells): weak
RAR response (T/C %) (RAR-α; HCC-D cells, TAC-101 0.3 μM): 161%
RAR response (T/C %) (RAR-α; HCC-D cells, TAC-101 1 μM): 161%
RAR response (T/C %) (RAR-α; HCC-D cells, TAC-101 3 μM): 168%
RAR transcription activity induced by TAC-101 (in words) (RAR-α; HCC-E cells): high
RAR response (T/C %) (RAR-α; HCC-E cells, TAC-101 0.3 μM): 476%
RAR response (T/C %) (RAR-α; HCC-E cells, TAC-101 1 μM): 482%
RAR response (T/C %) (RAR-α; HCC-E cells, TAC-101 3 μM): 259%
Inhibition (%) of tumor growth (tumor weight, mean inhibition rate) (HCC-C): 81%
antitumor activity (in words) (liver cancer): antitumor activity of TAC-101 was observed
Increase of life span (%) [1]: 26%
Increase of life span (%) (HCC-E cells): 81%
